≈ marks a conversion by molar mass, not a printed value.
Assays:
[1] = test system: Staphylococcus aureus ATCC 25923; experiment: Planktonic susceptibility (MIC/MBC), 96-well broth microdilution; format: cell-based; conditions: Staphylococcus aureus, ATCC25923, S. aureus; for MIC: planktonic, overnight 37°C in MHB
Method: (§1) All bacterial strains subjected to testing had been stored at −70°C prior to the experiment. The experiment commenced by streaking small amounts of the frozen bacterial samples onto Muller-Hinton agar (MHA) culture medium (BD Bacto, Oxoid, Basingstoke, UK Cat# X296B) and allowing for overnight incubation. Bacteria were re-cultured on MHA plates as required to confirm colony morphology and lack of contamination. Strains tested were P. aeruginosa ATCC 27853, E. coli ATCC 25922, Staphylococcus aureus ATCC 25923, MRSA ATCC 33591, S. epidermidis ATCC 12228, Klebsiella pneumoniae ATCC, P. mirabilis ATCC 35659, and 10 clinical isolates of MRSA from Foothills Hospital, Calgary, Canada. To prepare for susceptibility testing, a protocol modified from Lemire et al was used ([28]). MHB was swab-inoculated from MHA colonies and shake-incubated until turbid. Dilution of the broth with 0.9% saline was performed as necessary to match a 1.0 McFarland standard.
(§2) MIC and MBC assessments were conducted on all bacterial strains using 96-well microtiter plates. To prepare the wells for bacteria, serial dilutions of the antibacterial agents were carried out along the rows of two microtiter plates. The antibacterials were 2-fold diluted with Mueller-Hinton broth (MHB) in each column, reaching a volume of 75 µL. The 1.0 McFarland standard was diluted 15-fold in MHB, and 75 µL of inoculum was added to the wells treated with antibacterials, resulting in a total volume of 150 µL. The microtiter plates were covered and then shake-incubated overnight at 150 rpm and 37°C. MIC was determined based on visible bacterial growth. In cases of antibacterial opacity or ambiguous results, streaking of well cultures on MHA, overnight incubation, and subsequent comparison with controls were performed. MBC was determined by transferring 3 µL of culture from all MIC microtiter plate wells to 147 µL of Mueller-Hinton broth in fresh plates. These plates were shake-incubated overnight at 150 rpm and 37°C, and bacterial growth was visually inspected.

E. coli ATCC 25922 = experiment: as above; format: cell-based; conditions: Escherichia coli; for MBC: ATCC25922; for MIC: ATCC25922, planktonic, overnight 37°C in MHB
Method: as §1, §2

[2] = test system: Klebsiella pneumoniae ATCC; experiment: as above; format: cell-based; conditions: K. pneumonia; for MIC: planktonic, overnight 37°C in MHB
Method: as §1, §2

P. mirabilis ATCC 35659 = experiment: as above; format: cell-based; conditions: Proteus mirabilis; for MBC: ATCC35659; for MIC: ATCC35659, planktonic, overnight 37°C in MHB
Method: as §1, §2

P. aeruginosa ATCC 27853 = experiment: as above; format: cell-based; conditions: Pseudomonas aeruginosa; for MBC: ATCC27853; for MIC: ATCC27853, planktonic, overnight 37°C in MHB
Method: as §1, §2

[3] = test system: 10 clinical isolates of MRSA from Foothills Hospital, Calgary; experiment: Planktonic susceptibility (MIC/MBC) of MRSA clinical isolates; format: cell-based, methicillin-resistant S. aureus; conditions: Staphylococcus aureus
Method: as §1
as §2, with “In cases of antibacterial opacity or ambiguous results, streaking of well cultures on MHA, overnight incubation, and subsequent comparison with controls were performed.” left out

[4] = test system: S. epidermidis ATCC 12228; experiment: Planktonic susceptibility (MIC/MBC), 96-well broth microdilution; format: cell-based, Staphylococcus epidermidis; conditions: Staphylococcus epidermidis; for MBC: ATCC12228; for MIC: ATCC12228, planktonic, overnight 37°C in MHB
Method: as §1, §2

Gram-positive bacteria = test system: Gram-positive bacteria; parameters: method as in PMID 12534815; conditions: cited from earlier work
Gram-negative pathogens = test system: Gram-negative pathogens; parameters: method as in PMID 12534815; conditions: cited from earlier work
MRSA ATCC 33591 = experiment: Planktonic susceptibility (MIC/MBC), 96-well broth microdilution; format: cell-based, methicillin-resistant S. aureus; conditions: Staphylococcus aureus, MRSA reference strain
Method: as §1
as §2, with “In cases of antibacterial opacity or ambiguous results, streaking of well cultures on MHA, overnight incubation, and subsequent comparison with controls were performed.” left out

MIC [1]	MIC (E. coli ATCC 25922)	MIC [2]	MIC (P. mirabilis ATCC 35659)	MIC (P. aeruginosa ATCC 27853)	MIC [4]	Structure (SMILES)	MBC [1]	MBC (E. coli ATCC 25922)	MBC [2]	MBC (P. mirabilis ATCC 35659)	MBC (P. aeruginosa ATCC 27853)	MBC ([3]; MRSA #1 clinical isolate)	MIC ([3]; MRSA #1 clinical isolate)	MBC ([3]; MRSA #2 clinical isolate)	MIC ([3]; MRSA #2 clinical isolate)	MBC ([3]; MRSA #3 clinical isolate)	MIC ([3]; MRSA #3 clinical isolate)	MBC ([3]; MRSA #4 clinical isolate)	MIC ([3]; MRSA #4 clinical isolate)	MBC [4]	also measured
40 µM (≈ 19.1 µg/mL)	10 µM (≈ 4.78 µg/mL)	1 µM (≈ 0.478 µg/mL)	1 µM (≈ 0.478 µg/mL)	12 µM (≈ 5.73 µg/mL)	300 µM (≈ 143 µg/mL)	CNC(C)C1CCC(N)C(OC2C(N)CC(N)C(OC3OCC(C)(O)C(NC)C3O)C2O)O1 (stereo not shown) [Gen, Gentamicin, reference compound]	40 µM (≈ 19.1 µg/mL)	10 µM (≈ 4.78 µg/mL)	50 µM (≈ 23.9 µg/mL)	50 µM (≈ 23.9 µg/mL)	1200 µM (≈ 573 µg/mL)	1600 µM (≈ 764 µg/mL)	100 µM (≈ 47.8 µg/mL)	200 µM (≈ 95.5 µg/mL)	50 µM (≈ 23.9 µg/mL)	50 µM (≈ 23.9 µg/mL)	50 µM (≈ 23.9 µg/mL)	50 µM (≈ 23.9 µg/mL)	50 µM (≈ 23.9 µg/mL)	300 µM (≈ 143 µg/mL)	MBC ([3]; MRSA #5 clinical isolate): 6250 µM (≈ 2990 µg/mL); MIC ([3]; MRSA #5 clinical isolate): 800 µM (≈ 382 µg/mL); MBC ([3]; MRSA #6 clinical isolate): 25000 µM (≈ 11900 µg/mL); MIC ([3]; MRSA #6 clinical isolate): 3000 µM (≈ 1430 µg/mL); MBC ([3]; MRSA #7 clinical isolate): 1600 µM (≈ 764 µg/mL); MIC ([3]; MRSA #7 clinical isolate): 50 µM (≈ 23.9 µg/mL); MBC ([3]; MRSA #8 clinical isolate): 50 µM (≈ 23.9 µg/mL); MIC ([3]; MRSA #8 clinical isolate): 50 µM (≈ 23.9 µg/mL); MBC ([3]; MRSA #9 clinical isolate): 50 µM (≈ 23.9 µg/mL); MIC ([3]; MRSA #9 clinical isolate): 50 µM (≈ 23.9 µg/mL); MBC ([3]; MRSA #10 clinical isolate): 50 µM (≈ 23.9 µg/mL); MIC ([3]; MRSA #10 clinical isolate): 50 µM (≈ 23.9 µg/mL)
–	–	–	–	–	–	O=C(Nc1ccc(Cl)cc1)Nc1ccc(Cl)c(Cl)c1 [TCC, triclocarban]	–	–	–	–	–	–	–	–	–	–	–	–	–	–	antibacterial action against Gram-positive bacteria (Gram-positive bacteria): antibacterial action; activity against Gram-negative pathogens (Gram-negative pathogens): no activity
80 µM (≈ 26.5 µg/mL)	2 µM (≈ 0.663 µg/mL)	10 µM (≈ 3.31 µg/mL)	20 µM (≈ 6.63 µg/mL)	61 µM (≈ 20.2 µg/mL)	1200 µM (≈ 398 µg/mL)	O=C(O)c1cn(C2CC2)c2cc(N3CCNCC3)c(F)cc2c1=O [Cip, Ciprofloxacin, reference compound]	80 µM (≈ 26.5 µg/mL)	2 µM (≈ 0.663 µg/mL)	500 µM (≈ 166 µg/mL)	800 µM (≈ 265 µg/mL)	2400 µM (≈ 795 µg/mL)	–	–	–	–	–	–	–	–	1200 µM (≈ 398 µg/mL)	–
–	–	–	–	–	–	O=C(Nc1ccc(Cl)cc1)Nc1ccc(Cl)c(C(F)(F)F)c1 [cloflucarban, 3-trifluoromethyl-4,4′-dichlorocarbanilide]	–	–	–	–	–	–	–	–	–	–	–	–	–	–	antibacterial action against Gram-positive bacteria (Gram-positive bacteria): antibacterial action; activity against Gram-negative pathogens (Gram-negative pathogens): no activity
480 µM (≈ 195 µg/mL)	–	> 5000 µM	625 µM (≈ 254 µg/mL)	–	1200 µM (≈ 489 µg/mL)	O=C(Nc1ccc(Cl)cc1)Nc1cc(S(F)(F)(F)(F)F)ccc1Cl [EBP-40, 1-(2-Chloro-5-(pentafluoro-λ^6-sulfanyl)phenyl)-3-(4-chlorophenyl)urea]	1200 µM (≈ 489 µg/mL)	–	> 5000 µM	625 µM (≈ 254 µg/mL)	–	1200 µM (≈ 489 µg/mL)	20 µM (≈ 8.14 µg/mL)	40 µM (≈ 16.3 µg/mL)	20 µM (≈ 8.14 µg/mL)	160 µM (≈ 65.2 µg/mL)	80 µM (≈ 32.6 µg/mL)	160 µM (≈ 65.2 µg/mL)	40 µM (≈ 16.3 µg/mL)	900 µM (≈ 366 µg/mL)	MBC (MRSA ATCC 33591): 610 µM (≈ 248 µg/mL); MIC (MRSA ATCC 33591; planktonic, overnight 37°C in MHB): 150 µM (≈ 61.1 µg/mL); MBC ([3]; MRSA #5 clinical isolate): 40 µM (≈ 16.3 µg/mL); MIC ([3]; MRSA #5 clinical isolate): 20 µM (≈ 8.14 µg/mL); MBC ([3]; MRSA #6 clinical isolate): 160 µM (≈ 65.2 µg/mL); MIC ([3]; MRSA #6 clinical isolate): 40 µM (≈ 16.3 µg/mL); MBC ([3]; MRSA #7 clinical isolate): 80 µM (≈ 32.6 µg/mL); MIC ([3]; MRSA #7 clinical isolate): 40 µM (≈ 16.3 µg/mL); MBC ([3]; MRSA #8 clinical isolate): 80 µM (≈ 32.6 µg/mL); MIC ([3]; MRSA #8 clinical isolate): 40 µM (≈ 16.3 µg/mL); MBC ([3]; MRSA #9 clinical isolate): 80 µM (≈ 32.6 µg/mL); MIC ([3]; MRSA #9 clinical isolate): 20 µM (≈ 8.14 µg/mL)

Source: PMC11237694, “Novel pentafluorosulfanyl-containing triclocarban analogs selectively kill Gram-positive bacteria” (Microbiology Spectrum, 2024)
